The values that follow come from patent US4973597A, “Anticonvulsant agents” (Eli Lilly and Company, priority 1989, dated 1990).

In assay [1] the test system is tonic extensor seizures elicited by maximal electroshock. The assay can be described thus: electroshock induced convulsion inhibition assay (E.S.). To be noted: mice; for ED50: Mus musculus, oral dose (gavage), 0.2 second, 50 milliampere corneal electroshock, inhibition of extensor tonic convulsions in half of the animals, at time of optimal response; for Time after dosing providing an approximately optimal response: oral gavage, time between dosing and administration of the electroshock. In kind it is in vivo, Cox standard strain albino male mice. How it is done:
In the electroshock induced convulsion inhibition assay (E.S.), the compound to be tested was suspended in acacia and administered by gavage to each of ten Cox standard strain albino male mice (18-24 g) at the dose level being investigated. Thirty to 180 minutes after compound administration, the mice were subjected to a 0.2 second, 50 milliampere electroshock through corneal electrodes. The animals were examined and evaluated immediately after the electroshock for the occurrence of clonic, flexor tonic, or extensor tonic convulsions, or death and the ED50 was determined for each compound as the dose which inhibited the occurrence of extensor tonic convulsions in one half of the animals immediately after the electroshock. For comparison, 18 milliamperes was usually sufficient to produce extensor tonic convulsions in about half of the control animals; at 50 milliamperes, almost all control animals (receiving vehicle only) died. The test results summarized in Table I are reported as the ED50 values calculated by computer interpolation of fixed doses at the time interval found to provide an optimal response after dosing. For comparison purposes, N-(2,6-dimethylphenyl)-3-pyridinecarboxamide, taught as an intermediate in Example 4 of U.S. Pat. No. 4,361,572, was also evaluated--this compound is referred to in Table I below as Compound A.

In another assay the test system is seizures. To be noted: man; cited from earlier work.

SMILES strings stand for the structures. A value given as a limit tells only on which side of the number the result lay.

For `CNc1ccc(C(=O)Nc2c(C)cccc2C)cn1` [Example 4, 6-(Methylamino)-N-(2,6-dimethylphenyl)-3-pyridinecarboxamide], in assay [1], the ED50 turned out to be 8.7 mg/kg and the “Time after dosing providing an approximately optimal response” value (“Time” for short) came to 60 min.

With `Cc1cccc(C)c1NC(=O)c1ccc(Cl)nc1` [Example 1, 6-Chloro-N-(2,6-dimethylphenyl)-3-pyridinecarboxamide], in assay [1], the ED50 was found to be 31.7 mg/kg and the “Time” value was 30 min.

On to `Cc1ccc(C(=O)Nc2c(C)cccc2Cl)cn1` [Example 3, N-(2-Chloro-6-methylphenyl)-6-methyl-3-pyridinecarboxamide], for which, in assay [1], the 50% effect level (ED50) was put at a dose of 20.2 mg/kg and the “Time” value stood at 60 min.

For `Cc1cccc(C)c1NC(=O)c1cccnc1` [Compound A, N-(2,6-dimethylphenyl)-3-pyridinecarboxamide, reference compound], in assay [1], the ED50 turned out to be 24.5 mg/kg and the “Time” value was 30 min.

For the molecule `Cc1ccc(C(=O)Nc2c(C)cccc2C)cn1` [Example 2, N-(2,6-Dimethylphenyl)-6-methyl-3-pyridinecarboxamide], in assay [1], the 50% effect level (ED50) was put at a dose of 6.7 mg/kg and the “Time” value was 60 min.

With `O=C1NC(=O)C(c2ccccc2)(c2ccccc2)N1` [phenytoin], in the assay on seizures, the “plasma level that controls seizures” value was not below 10 µg/mL.
